Test [1] concerns pERK1/2 (Thr202/Tyr204) in Miapaca2 cells. Description: Assay of intracellular pERK1/2 (Thr202/Tyr204) phosphorylation. The class given is cell-based. As to conditions: pERK1/2 (Thr202/Tyr204) HTRF. The method, then:
Example 3 Assay of Intracellular pERK1/2 (Thr202/Tyr204) Phosphorylation
1. Reagents and Materials • pERK1/2 (Thr202/Tyr204) HTRF kit: Cisbio, Cat #64ERKPEH; • Cell line: Miapaca2, ATCC, CRL-1420; • OptiPlate™-384-well plate: PerkinElmer, Cat #6007299; • 96-well plate: Corning, Cat #353072; • Instrument: EnVision2104, PerkinElmer.
2. Preparation of Reaction Solutions • The test compound was dissolved in DMSO and diluted with DMSO to 600.0 μM, and the compound was further 3-fold diluted with DMSO to: 600.0, 200.0, 66.7, 22.2, 7.4, 2.5, 0.82 and 0.27 μM. Then 10 μL of the compound at different dilution concentrations was added to 190 μL of a DMEM medium to prepare a 10× test compound, wherein DMSO was at the concentration of 5% (DMSO was at the final concentration of 0.5%). • 1× cell lysis buffer: 4× cell lysis stock solution (provided by the kit) was diluted 4-fold with deionized water, and then 1% 100× blocking stock solution (provided by the kit) was added thereto. • pERK1/2 detection solution (prepared just before use): the pERK1/2 d2 antibody (provided by the kit) and pERK1/2 Cryptate antibody (provided by the kit) were diluted with the detection solution (provided by the kit) at a ratio of 1:1:38.
3. Experimental Steps • Miapaca2 cells were inoculated into a 96-well plate at a density of 10000 cells/well at 90 μL/well and cultured in a cell incubator at 5% CO2 and 37° C. overnight. • 10 μL of 10× test compound was added to the 90 μL cell culture 96-well plate; to the cell positive control well was added 10 μL of 5% DMSO culture solution; and the plate was cultured in a cell incubator at 5% CO2 and 37° C. for 2 hours. • The medium in the 96-well plate was removed; 50 μL of 1× cell lysis buffer was added to each well; the plate was placed in a microplate shaker; and lysis under shaking was carried out at 900 rpm at room temperature for 1 hour. • 16 μL of the lysis buffer in the 96-well plate was taken and transferred to a 384-well plate, and centrifugation was carried out at 1000 rpm for 30 seconds; then 4 μL of pERK1/2 detection solution was added to each well and centrifugation was carried out at 1000 rpm for 30 seconds; and the 384-well plate was sealed with a sealing membrane and incubated at 25° C. on a low-speed shaker (100 rpm) in the dark for 2 hours. • The fluorescence value (relative fluorescence units, RFU) of each well was detected on EnVision2104 (emission 1: 665 nm, emission 2: 615 nm).
wherein • the fluorescence ratio of compound well refers to the fluorescence ratio of the well containing the test compounds; • the fluorescence ratio of negative control well refers to the fluorescence ratio of the background containing the cell lysis buffer and no Miapaca2 cells; • the fluorescence ratio of positive control well refers to the fluorescence ratio of the well containing 0.5% DMSO and Miapaca2 cells.
(§1) IC50 values were calculated following formula 205: y=A+((B−A)/(1+((C/X)^D))), by using the XL-Fit 5.0 software.

Test [2] deals with Human full-length SHP2 recombinant protein (Homo sapiens (Human), UniProt Q06124). Description: Assay of full-length SHP2 phosphatase activity. As to conditions: DiFMUP substrate, with activating peptide. The class given is biochemical. The method, then:
Example 2 Assay of Full-Length SHP2 Phosphatase Activity
1. Reagents and Materials • Human full-length SHP2 recombinant protein: BPS Bioscience, Cat #79018; • SHP2 substrate DiFMUP (1 mM): BPS Bioscience, Cat #79769; • SHP2 activating peptide (100 μM): BPS Bioscience, Cat #79319-2; • DTT: Merck, Cat #DTT-RO; • 384-well plate: Corning, Cat #3575; • 96-well plate: Thermo Fisher Scientific, Cat #249952; • Instrument: EnVision 2104, PerkinElmer.
2. Preparation of Reaction Solutions
The test compound was dissolved in DMSO and diluted with DMSO to 100.0 μM, and the compound was further 3-fold diluted with DMSO to: 100.00, 33.33, 11.11, 3.70, 1.23, 0.41, 0.14 and 0.05 μM.
3. Experimental Steps • To the corresponding wells of the 384-well plate was added 2.5 μL of 4× test compound or 2.5 μL of 4% DMSO solution, and centrifugation was carried out at 1000 rpm for 30 seconds. • To the test compound well and positive control well was added 2.5 μL of 4× mixed solution of SHP2 enzyme/activating peptide while to the negative control well was added 2.5 μL of 1× enzymatic reaction buffer; centrifugation was carried out at 1000 rpm for 30 seconds and incubation was carried out at room temperature for 30 minutes. • To each well was added 5 μL of 2×DiFMUP substrate to initiate the enzymatic reaction, then the plate was transiently oscillated and centrifuged at 1000 rpm for 30 seconds, and the 384-well plate was sealed with a sealing membrane and incubated at 25° C. on a low-speed shaker (100 rpm) in the dark for 60 minutes. • The fluorescence value (relative fluorescence units, RFU) of each well was detected on EnVision2104 (excitation: 355 nm, emission: 460 nm).
wherein • the RFU of compound well refers to the fluorescence reading at 460 nm of the well containing the test compounds; • the RFU of negative control well refers to the fluorescence reading at 460 nm of the background well containing 1% DMSO and the enzymatic reaction buffer; • the RFU of positive control well refers to the fluorescence reading at 460 nm of the well containing 1% DMSO and the mixed solution of SHP2 enzyme/activating peptide.
as §1

The structures appear in SMILES notation.

Chain of Human full-length SHP2 recombinant protein (Q06124 whole entry): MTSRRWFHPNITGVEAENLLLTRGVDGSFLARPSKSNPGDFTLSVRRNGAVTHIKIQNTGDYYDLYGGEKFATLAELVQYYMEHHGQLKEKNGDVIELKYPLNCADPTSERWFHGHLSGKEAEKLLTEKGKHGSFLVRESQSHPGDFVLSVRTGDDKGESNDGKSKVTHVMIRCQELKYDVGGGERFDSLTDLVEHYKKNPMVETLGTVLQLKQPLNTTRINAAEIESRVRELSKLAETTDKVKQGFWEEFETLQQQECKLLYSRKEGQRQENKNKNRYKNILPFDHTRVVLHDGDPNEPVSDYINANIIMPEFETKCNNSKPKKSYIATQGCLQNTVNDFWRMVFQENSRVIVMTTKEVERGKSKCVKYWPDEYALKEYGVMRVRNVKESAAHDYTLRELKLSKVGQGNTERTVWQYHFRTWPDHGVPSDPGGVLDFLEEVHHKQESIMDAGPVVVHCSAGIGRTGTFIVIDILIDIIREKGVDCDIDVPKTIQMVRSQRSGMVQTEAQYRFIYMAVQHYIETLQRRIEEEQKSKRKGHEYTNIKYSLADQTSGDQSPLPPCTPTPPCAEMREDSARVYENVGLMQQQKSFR

Take `COCC#Cc1cccc2c1CC1(CCN(c3cc(=O)n(-c4cccc(Cl)c4Cl)c(C)n3)CC1)[C@@H]2N` [Compound 96]: the IC50 in test [1] (Homo sapiens, MIA PaCa-2, 2 h) stood at 55 nM; in test [2] it was 5 nM.
The matching figures for `COc1c(F)ccc(-n2c(C)nc(N3CCC4(CC3)Cc3ccc(C#CCN(C)C)cc3[C@H]4N)cc2=O)c1F` [Compound 83]: 57 nM and 1 nM.
In the same order, the values of `C#Cc1ccc2c(c1)[C@@H](N)C1(CCN(c3ncc(N4CCCc5ncccc54)c(=O)n3C)CC1)C2` [Compound 287] are 140 nM and 12 nM.
The matching figures for `CNC(=O)C#Cc1cc2c(cc1F)CC1(CCN(c3nc(N)c(Sc4ccnc(N)c4Cl)nc3Cl)CC1)[C@@H]2N` [Compound 223]: 23 nM and 4 nM.
Regarding `CCOCC#Cc1ccc2c(c1)[C@@H](N)C1(CCN(c3cc(=O)n(-c4cccc(Cl)c4Cl)c(C)n3)CC1)C2` [Compound 115], the IC50 was determined as 26 nM in test [1] (Homo sapiens, MIA PaCa-2, 2 h) and 2 nM in test [2].
The matching figures for `Cc1nc(N2CCC3(CC2)Cc2ccc(C#C[C@H](C)O)cc2[C@H]3N)cc(=O)n1-c1cccc(Cl)c1Cl` [Compound 38]: 343 nM and 46 nM.
In the same order, the values of `CNC(=O)C#Cc1ccc2c(c1)[C@@H](N)C1(CCN(c3ncc(Sc4cccnc4C(F)(F)F)nn3)CC1)C2` [Compound 246] are 688 nM and 133 nM.
As for `COCC#Cc1ccc2c(c1)[C@@H](N)C1(CCN(c3cnc(Sc4ccnc(N)c4Cl)c(N)n3)CC1)C2` [Compound 86], the IC50 stood at 6 nM in test [1] (Homo sapiens, MIA PaCa-2, 2 h) and 2 nM in test [2].
Turning to `C#Cc1ccc2c(c1)CC1(CCN(c3cc(=O)n(-c4cccc(Cl)c4)c(C)n3)CC1)[C@@H]2N` [Compound 26], the IC50 in test [1] (Homo sapiens, MIA PaCa-2, 2 h) was above 3000 nM; in test [2], 158 nM.
In the same order, the values of `C#Cc1ccc2c(c1)[C@@H](N)C1(CCN(c3cc(=O)n(-c4ccccc4Cl)c(C)n3)CC1)C2` [Compound 42, (S)-6-(1-amino-6-ethynyl-1,3-dihydrospiro[indene-2,4′-piperidin]-1′-yl)-3-(2-chlorophenyl)-2-methylpyrimidin-4(3H)-one] are 133 nM and 6 nM.
`COCC#Cc1ccc2c(c1)[C@@H](N)C1(CCN(c3cc(=O)n(-c4cccc(Cl)c4Cl)c(C)n3)CC1)C2` [Compound 30]: the IC50 in test [1] (Homo sapiens, MIA PaCa-2, 2 h) worked out at 8 nM; in test [2], 2 nM.
In the same order, the values of `C#Cc1ccc2c(c1)[C@@H](N)C1(CCN(c3ncc(Sc4ccnc(N)n4)c(N)n3)CC1)C2` [Compound 213] are 447 nM and 68 nM.
Turning to `C#Cc1ccc2c(c1)[C@@H](N)C1(CCN(c3cc(=O)n(-c4ccc(F)c(OC)c4Cl)c(C)n3)CC1)C2` (atropisomer, axis not shown) [Compound 162], the IC50 in test [1] (2 hours) was 155 nM; in test [2] it was 34 nM.
In the same order, the values of `COCC#Cc1ccc2c(c1)[C@@H](N)C1(CCN(c3cc(=O)n(-c4ccc(F)c(Cl)c4Cl)c(C)n3)CC1)C2` (atropisomer, axis not shown) [Compound 124] are 15 nM and 1.3 nM.
Turning to `C#Cc1ccc2c(c1)[C@@H](N)C1(CCN(c3cc(=O)n(-c4ccccc4Cl)c(C)n3)CC1)C2` (single isomer, unassigned) [Compound 56], the values for the IC50 in test [1] (2 hours) and in test [2] were 85 nM and 2 nM, respectively.
Turning to `C#Cc1ccc2c(c1)[C@@H](N)C1(CCN(c3cc(=O)n(-c4c(F)cccc4F)c(C)n3)CC1)C2` [Compound 35], the IC50 in test [1] (Homo sapiens, MIA PaCa-2, 2 h) came to 274 nM; in test [2] it was 17 nM.
On to `NC(=O)C#Cc1ccc2c(c1)[C@@H](N)C1(CCN(c3ncc(Sc4ccnc(N)n4)nc3CO)CC1)C2` [Compound 122], for which the IC50 in test [1] (Homo sapiens, MIA PaCa-2, 2 h) stood at 7 nM; in test [2], 0.6 nM.
The matching figures for `Cc1nc(N2CCC3(CC2)Cc2ccc(Nc4cnn(C)c4)cc2[C@H]3N)cc(=O)n1-c1cccc(Cl)c1Cl` [Compound 63]: 177 nM and 4 nM.
In the same order, the values of `C#Cc1ccc2c(c1)[C@@H](N)C1(CCN(c3cnc(Sc4ccnc(N)n4)c(N)n3)CC1)C2` [Compound 126] are 42 nM and 2 nM.
As to `C#Cc1ccc2c(c1)CC1(CCN(c3cc(=O)n(-c4cccc(Cl)c4Cl)c(C)n3)CC1)[C@@H]2N` (atropisomer, axis not shown) [Compound 20], the IC50 in test [1] (Homo sapiens, MIA PaCa-2, 2 h) was 52 nM; in test [2], 12 nM.
As to `COCC#Cc1ccc2c(c1)[C@@H](N)C1(CCN(c3cc(=O)n(-c4ccc(C#N)cc4Cl)c(C)n3)CC1)C2` [Compound 93], the IC50 was 301 nM in test [1] (Homo sapiens, MIA PaCa-2, 2 h) and 16 nM in test [2].
The matching figures for `Cc1nc(N2CCC3(CC2)Cc2ccc(C#CC(N)=O)cc2[C@H]3N)cc(=O)n1-c1cccc(Cl)c1Cl` [Compound 127]: 13 nM and 0.6 nM.
The matching figures for `C#Cc1ccc2c(c1)[C@@H](N)C1(CCN(c3cc(=O)n(-c4cccc(SC)c4)c(C)n3)CC1)C2` [Compound 53]: 364 nM and 18 nM.
The matching figures for `C#Cc1ccc2c(c1)CC1(CCN(c3ncc(Sc4ccnc(N)c4Cl)c4nccn34)CC1)[C@@H]2N` [Compound 1, (S)-1′-(8-((2-amino-3-chloropyridin-4-yl)thio)imidazo[1,2-c]pyrimidin-5-yl)-5-ethynyl-1,3-dihydrospiro[indene-2,4′-piperidin]-1-amine]: 18 nM and 2 nM.
Turning to `C#Cc1ccc2c(c1)[C@@H](N)C1(CCN(c3cc(=O)n(-c4cccc(C#N)c4Cl)c(C)n3)CC1)C2` [Compound 34], the IC50 in test [1] (2 hours) was 244 nM; in test [2], 4 nM.
Take `C#Cc1ccc2c(c1)[C@@H](N)C1(CCN(c3cc(=O)n(-c4ccc(F)c(OC)c4F)c(C)n3)CC1)C2` (atropisomer, axis not shown) [Compound 88]: the IC50 in test [1] (2 hours) was found to be 26 nM; in test [2], 0.8 nM.
`NC(=O)C#Cc1ccc2c(c1)[C@@H](N)C1(CCN(c3ncc(Sc4ccnc(N)c4Cl)nc3CO)CC1)C2` [Compound 123]: the IC50 was 4 nM in test [1] (Homo sapiens, MIA PaCa-2, 2 h) and 0.6 nM in test [2].

In general, IC50 refers to the point on the concentration scale where inhibition reaches its midpoint.

The values are drawn from patent US20240140931A1, “TRICYCLIC COMPOUNDS AND USES THEREOF” (HUTCHMED LIMITED, priority 2021, published 2024).
